Among the data in patent US20250152675A1, “I-TYPE RECOMBINANT COLLAGEN WITH HIGH TRANSDERMAL ABSORBABILITY, AND USE THEREOF” (XI'AN GIANT BIOGENE TECHNOLOLGY CO., LTD, priority 2022, published 2025) are 24h penetration amount values, retold here.

Residues, ends and D or L forms follow the SMILES beside them.

The nature of this data set: Transdermal penetration through ex vivo mouse skin in a single-chamber diffusion cell, content by BCA kit. The class given is in vitro ADME, Kunming mice. To be noted: collagen peptide 5 mg/ml in 0.9% NaCl, diffusion area 2.0 cm^2, 37.5° C. The method, then:
1. Preparation of Mouse Skin Ex Vivo 10 Kunming mice of 20 to 22 g with half male and half […] were used in the experiment. After the mice were killed, the hairs on the abdomen were removed. Then the skin on the hair-removed area was peeled off, stripped of fat and tendons, and rinsed repeatedly with distilled water. After being washed, the mouse skins were rinsed with normal saline, then treated with 10% glycerol, and stored at −20° C. for use (use up within 7 days).
Single-chamber diffusion cell: The effective diffusion area of the diffusion cell is 2.0 cm^2, the volume of the receiving cell is 14 ml, the length of the custom-made stirrer is 1.4 cm, and the receiving solution is 0.9% NaCl solution.
The stored mouse skin was taken out, thawed, washed with normal saline, and sandwiched between the receiving chamber and the supplying chamber, with the medicated side facing the supplying chamber and the skin side facing the receiving chamber. The temperature of the water bath system was adjusted to 37.5° C., and the stirring speed was adjusted to 100 rpm/min. 0.9% NaCl solution pre-warmed at 37° C. was added to the receiving chamber and the air bubbles were exhausted, in order to reduce the interference, the inner surface of the mouse skin was firstly contacted with the receiving solution without medication and all the receiving solution was replaced. Then the 27 collagen peptides synthesized were prepared into 5 mg/ml solutions using 0.9% NaCl respectively, which were injected into the supplying chamber and firmly adhere to the mouse skin respectively. After 24 h, part of the receiving solution was absorbed with a syringe as the sample solution to determine the transdermal amount of collagen peptide.
The BCA kit method was used to determine the polypeptide content in the sample solution. […]
Consider `CC(C)[C@H](NC(=O)CNC(=O)[C@H](CCCNC(=N)N)NC(=O)[C@H](CCC(=O)O)NC(=O)CNC(=O)[C@@H]1CCCN1C(=O)[C@H](Cc1ccccc1)NC(=O)CNC(=O)[C@H](CCCNC(=N)N)NC(=O)[C@H](CCC(=O)O)NC(=O)CNC(=O)[C@H](CCCNC(=N)N)NC(=O)[C@H](C)NC(=O)CNC(=O)[C@H](CO)NC(=O)[C@@H]1CCCN1C(=O)CNC(=O)[C@@H]1CCCN1C(=O)[C@H](C)NC(=O)CN)C(=O)N[C@@H](CCC(N)=O)C(=O)NCC(=O)N1CCC[C@H]1C(=O)N1CCC[C@H]1C(=O)NCC(=O)N1CCC[C@H]1C(=O)N[C@@H](C)C(=O)NCC(=O)N1CCC[C@H]1C(=O)N[C@@H](CCCNC(=N)N)C(=O)NCC(=O)N[C@@H](C)C(=O)N[C@@H](CC(N)=O)C(=O)NCC(=O)N[C@@H](C)C(=O)N1CCC[C@H]1C(=O)O` [compound 26] (H-GAPGPSGARGERGFPGERGVQGPPGPAGPRGANGAP-OH; N-terminus and C-terminus assumed), for which the 24h penetration amount was 2054.99 µg. Compound `CSCC[C@H](NC(=O)[C@@H]1CCCN1C(=O)CNC(=O)[C@@H]1CCCN1C(=O)[C@@H]1CCCN1C(=O)CNC(=O)[C@H](CCCNC(=N)N)NC(=O)[C@H](CCC(=O)O)NC(=O)CNC(=O)[C@H](CO)NC(=O)[C@H](C)NC(=O)CNC(=O)[C@H](CO)NC(=O)[C@@H]1CCCN1C(=O)CNC(=O)[C@H](CCC(N)=O)NC(=O)[C@H](CCCCN)NC(=O)CNC(=O)[C@@H]1CCCN1C(=O)[C@H](CCC(=O)O)NC(=O)CN)C(=O)NCC(=O)N1CCC[C@H]1C(=O)N1CCC[C@H]1C(=O)NCC(=O)N[C@@H](CC(C)C)C(=O)N[C@@H](C)C(=O)NCC(=O)N1CCC[C@H]1C(=O)N1CCC[C@H]1C(=O)NCC(=O)N[C@@H](CCC(=O)O)C(=O)N[C@@H](CO)C(=O)NCC(=O)N[C@@H](CCCNC(=N)N)C(=O)N[C@@H](CCC(=O)O)C(=O)O` [compound 23] (H-GEPGKQGPSGASGERGPPGPMGPPGLAGPPGESGRE-OH; N-terminus and C-terminus assumed) had a 24h penetration amount of 2323.45 µg. In the case of `CSCC[C@H](NC(=O)[C@@H]1CCCN1C(=O)CNC(=O)[C@@H]1CCCN1C(=O)[C@@H]1CCCN1C(=O)CNC(=O)[C@H](CCCNC(=N)N)NC(=O)[C@H](CCC(=O)O)NC(=O)CN)C(=O)NCC(=O)N1CCC[C@H]1C(=O)N1CCC[C@H]1C(=O)NCC(=O)N[C@@H](CC(C)C)C(=O)N[C@@H](C)C(=O)NCC(=O)N1CCC[C@H]1C(=O)N1CCC[C@H]1C(=O)NCC(=O)N[C@@H](CCC(=O)O)C(=O)N[C@@H](CO)C(=O)NCC(=O)N[C@@H](CCCNC(=N)N)C(=O)N[C@@H](CCC(=O)O)C(=O)NCC(=O)N[C@@H](C)C(=O)N1CCC[C@H]1C(=O)NCC(=O)N[C@@H](C)C(=O)N[C@@H](CCC(=O)O)C(=O)NCC(=O)N[C@@H](CO)C(=O)N1CCC[C@H]1C(=O)NCC(=O)N[C@@H](CCCNC(=N)N)C(=O)N[C@@H](CC(=O)O)C(=O)O` [compound 24] (H-GERGPPGPMGPPGLAGPPGESGREGAPGAEGSPGRD-OH; N-terminus and C-terminus assumed), the 24h penetration amount was 2234.67 µg.

In turn, `CSCC[C@H](NC(=O)[C@@H]1CCCN1C(=O)CNC(=O)[C@@H]1CCCN1C(=O)[C@@H]1CCCN1C(=O)CNC(=O)[C@H](CCCNC(=N)N)NC(=O)[C@H](CCC(=O)O)NC(=O)CNC(=O)[C@H](CO)NC(=O)[C@H](C)NC(=O)CNC(=O)[C@H](CO)NC(=O)[C@@H]1CCCN1C(=O)CNC(=O)[C@H](CCC(N)=O)NC(=O)[C@H](CCCCN)NC(=O)CNC(=O)[C@@H]1CCCN1C(=O)[C@H](CCC(=O)O)NC(=O)CNC(=O)[C@H](CO)NC(=O)[C@@H]1CCCN1C(=O)CNC(=O)[C@@H]1CCCN1C(=O)[C@H](CC(C)C)NC(=O)CNC(=O)[C@@H]1CCCN1C(=O)[C@H](Cc1ccccc1)NC(=O)CNC(=O)[C@H](CCCNC(=N)N)NC(=O)[C@H](CCC(=O)O)NC(=O)CN)C(=O)NCC(=O)N1CCC[C@H]1C(=O)N1CCC[C@H]1C(=O)O` [compound 21] (H-GERGFPGLPGPSGEPGKQGPSGASGERGPPGPMGPP-OH; N-terminus and C-terminus assumed) yielded a 24h penetration amount of 2199.78 µg. For `CC(C)C[C@H](NC(=O)[C@H](CC(=O)O)NC(=O)CNC(=O)[C@@H]1CCCN1C(=O)[C@@H](NC(=O)CN)C(C)C)C(=O)NCC(=O)N[C@@H](C)C(=O)N1CCC[C@H]1C(=O)NCC(=O)N1CCC[C@H]1C(=O)N[C@@H](CO)C(=O)NCC(=O)N[C@@H](C)C(=O)N[C@@H](CCCNC(=N)N)C(=O)NCC(=O)N[C@@H](CCC(=O)O)C(=O)N[C@@H](CCCNC(=N)N)C(=O)NCC(=O)N[C@@H](Cc1ccccc1)C(=O)N1CCC[C@H]1C(=O)NCC(=O)N[C@@H](CCC(=O)O)C(=O)N[C@@H](CCCNC(=N)N)C(=O)NCC(=O)N[C@H](C(=O)N[C@@H](CCC(N)=O)C(=O)NCC(=O)N1CCC[C@H]1C(=O)N1CCC[C@H]1C(=O)NCC(=O)N1CCC[C@H]1C(=O)N[C@@H](C)C(=O)NCC(=O)N1CCC[C@H]1C(=O)N[C@@H](CCCNC(=N)N)C(=O)O)C(C)C` [compound 14] (H-GVPGDLGAPGPSGARGERGFPGERGVQGPPGPAGPR-OH; N-terminus and C-terminus assumed), the 24h penetration amount worked out at 2045.62 µg.

Take `CC[C@H](C)[C@H](NC(=O)CNC(=O)[C@H](CCC(N)=O)NC(=O)[C@@H]1CCCN1C(=O)CNC(=O)[C@@H]1CCCN1C(=O)[C@@H](NC(=O)CNC(=O)[C@@H]1CCCN1C(=O)[C@H](C)NC(=O)CNC(=O)[C@H](C)NC(=O)[C@@H]1CCCN1C(=O)CNC(=O)[C@H](CC(=O)O)NC(=O)[C@H](C)NC(=O)CNC(=O)[C@@H]1CCCN1C(=O)[C@H](CO)NC(=O)CN)[C@@H](C)O)C(=O)N[C@@H](C)C(=O)NCC(=O)N[C@@H](CCC(N)=O)C(=O)N[C@@H](CCCNC(=N)N)C(=O)NCC(=O)N[C@H](C(=O)N[C@H](C(=O)NCC(=O)N[C@@H](CC(C)C)C(=O)N1CCC[C@H]1C(=O)NCC(=O)N[C@@H](CCC(N)=O)C(=O)N[C@@H](CCCNC(=N)N)C(=O)NCC(=O)N[C@@H](CCC(=O)O)C(=O)N[C@@H](CCCNC(=N)N)C(=O)O)C(C)C)C(C)C` [compound 19] (H-GSPGADGPAGAPGTPGPQGIAGQRGVVGLPGQRGER-OH; N-terminus and C-terminus assumed): the 24h penetration amount was 2432.23 µg.

In turn, `CC(C)C[C@H](NC(=O)CNC(=O)[C@H](C)NC(=O)[C@@H](NC(=O)CNC(=O)[C@@H]1CCCN1C(=O)[C@H](CC(C)C)NC(=O)CNC(=O)[C@H](CCCNC(=N)N)NC(=O)[C@H](C)NC(=O)CNC(=O)[C@H](CCC(N)=O)NC(=O)[C@@H]1CCCN1C(=O)CNC(=O)[C@@H]1CCCN1C(=O)[C@@H]1CCCN1C(=O)CNC(=O)[C@H](CCCNC(=N)N)NC(=O)[C@H](CCC(=O)O)NC(=O)CNC(=O)[C@@H]1CCCN1C(=O)[C@H](CCCNC(=N)N)NC(=O)CNC(=O)[C@@H]1CCCN1C(=O)[C@H](CCCCN)NC(=O)CNC(=O)[C@H](C)NC(=O)[C@H](CCC(=O)O)NC(=O)CNC(=O)[C@H](CC(=O)O)NC(=O)[C@H](CC(=O)O)NC(=O)CNC(=O)[C@H](CC(N)=O)NC(=O)[C@H](CCCCN)NC(=O)CN)[C@@H](C)O)C(=O)N1CCC[C@H]1C(=O)O` [compound 2] (H-GKNGDDGEAGKPGRPGERGPPGPQGARGLPGTAGLP-OH; N-terminus and C-terminus assumed) came in with a 24h penetration amount of 2097.44 µg. Turning to `CC(C)C[C@H](NC(=O)CNC(=O)[C@@H](NC(=O)[C@@H]1CCCN1C(=O)CNC(=O)[C@@H]1CCCN1C(=O)[C@H](CCC(=O)O)NC(=O)CNC(=O)[C@H](CCCNC(=N)N)NC(=O)[C@H](C)NC(=O)CNC(=O)[C@H](CCCNC(=N)N)NC(=O)[C@H](CCCCN)NC(=O)CNC(=O)[C@H](CCC(=O)O)NC(=O)[C@H](CCC(=O)O)NC(=O)CNC(=O)[C@H](C)NC(=O)[C@@H]1CCCN1C(=O)CNC(=O)[C@@H]1CCCN1C(=O)[C@@H]1CCCN1C(=O)CNC(=O)[C@H](CCC(N)=O)NC(=O)[C@@H](NC(=O)CNC(=O)[C@@H](NC(=O)[C@@H]1CCCN1C(=O)CN)C(C)C)C(C)C)[C@@H](C)O)C(=O)N1CCC[C@H]1C(=O)NCC(=O)N1CCC[C@H]1C(=O)N1CCC[C@H]1C(=O)NCC(=O)N[C@@H](CCC(=O)O)C(=O)N[C@@H](CCCNC(=N)N)C(=O)O` [compound 7] (H-GPVGVQGPPGPAGEEGKRGARGEPGPTGLPGPPGER-OH; N-terminus and C-terminus assumed), the 24h penetration amount was determined as 2189.90 µg. Regarding `CSCC[C@H](NC(=O)CNC(=O)[C@H](CCC(N)=O)NC(=O)[C@H](CC(C)C)NC(=O)CNC(=O)[C@@H]1CCCN1C(=O)[C@H](C)NC(=O)CNC(=O)[C@H](CCC(N)=O)NC(=O)[C@H](CO)NC(=O)CNC(=O)[C@@H]1CCCN1C(=O)[C@H](C)NC(=O)CNC(=O)[C@@H]1CCCN1C(=O)[C@H](C)NC(=O)CN)C(=O)N1CCC[C@H]1C(=O)NCC(=O)N[C@@H](CCC(=O)O)C(=O)N[C@@H](CCCNC(=N)N)C(=O)NCC(=O)N[C@@H](C)C(=O)N[C@@H](C)C(=O)NCC(=O)N[C@@H](CC(C)C)C(=O)N1CCC[C@H]1C(=O)NCC(=O)N1CCC[C@H]1C(=O)N[C@@H](CCCCN)C(=O)NCC(=O)N[C@@H](CC(=O)O)C(=O)N[C@@H](CCCNC(=N)N)C(=O)NCC(=O)N[C@@H](CC(=O)O)C(=O)N[C@@H](C)C(=O)O` [compound 17] (H-GAPGAPGSQGAPGLQGMPGERGAAGLPGPKGDRGDA-OH; N-terminus and C-terminus assumed), the 24h penetration amount came out at 2998.75 µg.
